{"source": "patent US7247627B2", "about": "“Salts and polymorphs of a pyrrole-substituted indolinone compound” (Pharmacia & Upjohn Company, priority 2003, dated 2007)", "key": {"[1]": {"assay": "Crystal form stability by PXRD (Example 3)", "format": "physicochemical", "settings": "40° C. and 75% relative humidity", "protocol": "Crystal form stability was assessed for samples of 5-[(Z)-(5-fluoro-2-oxo-1,2-dihydro-3H-indol-3-ylidene)methyl]-N-[(2S)-2-hydroxy-3-morpholin-4-ylpropyl]-2,4-dimethyl-1 H-pyrrole-3-carboxamide maleate salt, polymorph Form 1, polymorph Form 2, and a mixture of polymorph Form 1 and Form 2. In each case, a sample of the substance was placed into a controlled temperature and humidity stability chamber at 40° C. and 75% relative humidity. Samples were taken several times during the duration of the test and analyzed for qualitative changes in the PXRD patterns."}, "[2]": {"assay": "Hygroscopicity by dynamic moisture sorption gravimetry (DMSG)", "format": "physicochemical", "settings": "for hygroscopicity / hysteresis of sorption profile / Water Uptake at 80% RH (wt. %): DMSG; for Water Uptake at 80% RH (wt. %): 25° C.", "protocol": "In one embodiment, the invention provides a non-hygroscopic salt of 5-[(Z)-(5-fluoro-2-oxo-1,2-dihydro-3H-indol-3-ylidene)methyl]-N-[(2S)-2-hydroxy-3-morpholin-4-ylpropyl]-2,4-dimethyl-1H-pyrrole-3-carboxamide. Hygroscopicity is determined by dynamic moisture sorption gravimetry (DMSG) using a controlled atmosphere microbalance at a temperature of 25° C. Samples are analyzed over a relative humidity range of from 0 to 90% in 3% steps. Each step is brought to equilibrium before moving to the next step, with equilibrium assessed as a weight change of less than 0.002 mg (0.02%) for five consecutive points at 1 point per 120 seconds.\nSeveral salts of 5-[(Z)-(5-fluoro-2-oxo-1,2-dihydro-3H-indol-3-ylidene)methyl]-N-[(2S)-2-hydroxy-3-morpholin-4-ylpropyl]-2,4-dimethyl-1H-pyrrole-3-carboxamide were produced and analyzed for hygroscopicity. Hygroscopicity was determined by dynamic moisture sorption gravimetry (DMSG) using a controlled atmosphere microbalance at a temperature of 25° C. Samples were analyzed over a relative humidity range of from 0 to 90% in 3% steps, in a humidity profile of […], where the initial value of 36% reflects the approximate initial equilibrated relative humidity (not specifically measured). Each step was brought to equilibrium before moving to the next step, with equilibrium assessed as a weight change of less than 0.001 mg (0.01%) or 0.002 mg (0.02%) for five consecutive points at 1 point per 120 seconds. The water uptake at 80% relative humidity (RH) was selected for comparison between the salts. The 80% RH values for each salt are shown in Table 5, and the right column of the table identifies the corresponding Figure showing the complete DMSG scan. A range of values given for the water uptake at 80% reflects hysteresis in the 0→90% and 90→0% scans."}, "[3]": {"assay": "Six-week stability study, HPLC chemical and enantiomeric stability, PXRD (Example 4)", "format": "physicochemical", "settings": "for Total Impurity (%): closed vial", "protocol": "A six-week stability study was carried out on samples of 5-[(Z)-(5-fluoro-2-oxo-1,2-dihydro-3H-indol-3-ylidene)methyl]-N-[(2S)-2-hydroxy-3-morpholin-4-ylpropyl]-2,4-dimethyl-1H-pyrrole-3-carboxamide maleate salt, polymorph Form 1. The compound was exposed for 6 weeks, closed vial, at three stability test conditions: 5° C., 25° C./60% relative humidity and 40° C./75% relative humidity, and analyzed for chemical and enantiomeric stability as described in Example 2, except that the HPLC instrument was an Agilent 1100 series.\nThe percent recovery was calculated based on the average response factor obtained from a reference standard throughout the HPLC run, and considering the E isomer as the compound and not as an impurity. […] The isomerization is often an artifact of sample preparation and analysis. […] The values shown in the table are averages of several injections."}, "[4]": {"assay": "TGA of six-week stability samples", "format": "physicochemical", "protocol": "TGA measurements were performed using a TA Instruments model 2950 Hi-Res analyzer with a Thermal Analyst 5000 controller. Samples were placed onto a tared platinum hanging pan and heated to at least 165° C. at a rate of 10° C./min. Dry nitrogen was used as a purge gas.\nTo determine the thermal stability and residual solvent content, the same samples were analyzed by DSC and TGA."}, "hepatic cytochrome P450": {"test_system": "hepatic cytochrome P450", "assay": "Metabolism in preclinical species and in human hepatocytes and microsomes", "format": "in vitro ADME", "settings": "preclinical species (in vivo and in vitro)", "protocol": "The primary site of metabolism is the morpholinyl group. Three metabolites have been identified in vivo following single oral administration (100 mg/kg) to cynomolgus monkeys (FIG. 8). These 3 metabolites, which were detected at <16% relative abundance to parent in monkey plasma, were also the major products observed in human microsomes and hepatocytes. Relative abundance was determined from monkey plasma following a single dose of 5-[(Z)-(5-fluoro-2-oxo-1,2-dihydro-3H-indol-3-ylidene)methyl]-N-[(2S)-2-hydroxy-3-morpholin-4-ylpropyl]-2,4-dimethyl-1H-pyrrole-3-carboxamide (100 mg/kg) and based on (AUC0-12 metabolite/AUC0-12 parent)×100, estimated from the characteristic indole UV absorption at 440 nm. The N,O-dealkylation metabolite has been confirmed via nuclear magnetic resonance (NMR). […] The morpholinyl lactam metabolite is the product of oxygenation-dehydrogenation and has also been confirmed via NMR. The morpholinyl hemi-aminal metabolite is an unstable metabolite identified via an iminium-ion trapping experiment. Relative abundance was determined by UV response at 428 nm."}, "[5]": {"assay": "Solid-state properties of the free base form", "format": "physicochemical"}, "[6]": {"test_system": "solid and hematopoietic cancer xenograft models", "settings": "diverse preclinical solid and hematopoietic cancer xenograft models; cited from earlier work"}, "[7]": {"settings": "6-week sample stored at 25° C./60% RH"}, "[8]": {"settings": "6-week sample stored at 40° C./75% RH"}}, "note": "Structures can show the parent of a compound that is named as a salt."}
{"smiles": "Cc1[nH]c(/C=C2\\C(=O)Nc3ccc(F)cc32)c(C)c1C(=O)NC[C@H](O)CN1CCOCC1", "note": "[mixed Form 1/Form 2, 5-[(Z)-(5-fluoro-2-oxo-1,2-dihydro-3H-indol-3-ylidene)methyl]-N-[(2S)-2-hydroxy-3-morpholin-4-ylpropyl]-2,4-dimethyl-1H-pyrrole-3-carboxamide]", "values": [{"measurement": "crystal form changes in the PXRD pattern", "setting": "[1]; 6 weeks", "value": "no crystal form changes were observed"}]}
{"smiles": "Cc1[nH]c(/C=C2\\C(=O)Nc3ccc(F)cc32)c(C)c1C(=O)NC[C@H](O)CN1CCOCC1", "note": "[HCl, form 2, 5-[(Z)-(5-fluoro-2-oxo-1,2-dihydro-3H-indol-3-ylidene)methyl]-N-[(2S)-2-hydroxy-3-morpholin-4-ylpropyl]-2,4-dimethyl-1H-pyrrole-3-carboxamide]", "values": [{"measurement": "hygroscopicity", "setting": "[2]", "value": "relatively non-hygroscopic"}, {"measurement": "hysteresis of sorption profile", "setting": "[2]", "value": "no significant hysteresis"}, {"measurement": "Water Uptake at 80% RH (wt. %)", "setting": "[2]; 80% relative humidity", "value": 1.2, "unit": "wt. %"}]}
{"smiles": "Cc1[nH]c(/C=C2\\C(=O)Nc3ccc(F)cc32)c(C)c1C(=O)NC[C@H](O)CN1CCOCC1", "note": "[Tosylate, 5-[(Z)-(5-fluoro-2-oxo-1,2-dihydro-3H-indol-3-ylidene)methyl]-N-[(2S)-2-hydroxy-3-morpholin-4-ylpropyl]-2,4-dimethyl-1H-pyrrole-3-carboxamide]", "values": [{"measurement": "Water Uptake at 80% RH (wt. %)", "setting": "[2]; 80% relative humidity", "value": 7, "unit": "wt. %"}, {"measurement": "Uptake of water", "setting": "[2]; at about 65% relative humidity", "value": "about 2.5%"}]}
{"smiles": "Cc1[nH]c(/C=C2\\C(=O)Nc3ccc(F)cc32)c(C)c1C(=O)NC[C@H](O)CN1CCOCC1", "note": "[L-tartrate, 5-[(Z)-(5-fluoro-2-oxo-1,2-dihydro-3H-indol-3-ylidene)methyl]-N-[(2S)-2-hydroxy-3-morpholin-4-ylpropyl]-2,4-dimethyl-1H-pyrrole-3-carboxamide]", "values": [{"measurement": "Water Uptake at 80% RH (wt. %)", "setting": "[2]; 80% relative humidity", "value": 9, "unit": "wt. %"}]}
{"smiles": "Cc1[nH]c(/C=C2\\C(=O)Nc3ccc(F)cc32)c(C)c1C(=O)NC[C@H](O)CN1CCOCC1", "note": "[Form 1, 5-[(Z)-(5-fluoro-2-oxo-1,2-dihydro-3H-indol-3-ylidene)methyl]-N-[(2S)-2-hydroxy-3-morpholin-4-ylpropyl]-2,4-dimethyl-1H-pyrrole-3-carboxamide]", "values": [{"measurement": "crystal form changes in the PXRD pattern", "setting": "[1]; 163 days", "value": "no crystal form changes were observed"}, {"measurement": "crystalline changes by PXRD compared to a control sample", "setting": "[3]; 6-week samples maintained at 40° C./75% RH", "value": "no crystalline changes"}, {"measurement": "chiral transformation", "setting": "[3]; 6-week stability samples, any samples", "value": "no chiral transformation observed"}, {"measurement": "Total Impurity (%)", "setting": "[3]; 6 weeks, 5° C. ± 3° C.", "value": 1.67, "unit": "%"}, {"measurement": "Total Impurity (%)", "setting": "[3]; 6 weeks, 25° C. ± 2° C., 60% RH", "value": 1.85, "unit": "%"}, {"measurement": "Total Impurity (%)", "setting": "[3]; 6 weeks, 40° C. ± 2° C.C, 76% RH", "value": 1.86, "unit": "%"}, {"measurement": "assay of the 6-week stability samples", "setting": "[3]; all three stability conditions", "value": "97.1–98.5%"}, {"measurement": "Enantiomeric stability, amount of R isomer", "setting": "[3]; samples held at 80° C. for 2 weeks", "value": "no increase in the amount of R isomer observed"}, {"measurement": "stability", "setting": "[3]; under all stability conditions investigated, 6 weeks", "value": "stable"}, {"measurement": "TGA Wt. Loss (%), 25° C.–125° C.", "setting": "[4]; 6-week sample stored at 5° C.", "value": 1.44, "unit": "%"}, {"measurement": "TGA Wt. Loss (%), 25° C.–275° C.", "setting": "[4]; 6-week sample stored at 5° C.", "value": 23.15, "unit": "%"}, {"measurement": "TGA Wt. Loss (%), 25° C.–125° C.", "setting": "[4]; [7]", "value": 1.36, "unit": "%"}, {"measurement": "TGA Wt. Loss (%), 25° C.–275° C.", "setting": "[4]; [7]", "value": 24.36, "unit": "%"}, {"measurement": "TGA Wt. Loss (%), 25° C.–125° C.", "setting": "[4]; [8]", "value": 1.66, "unit": "%"}, {"measurement": "TGA Wt. Loss (%), 25° C.–275° C.", "setting": "[4]; [8]", "value": 20.61, "unit": "%"}, {"measurement": "TGA significant weight loss at 207° C.", "setting": "[4]; 6-week samples", "value": "21-23%"}, {"measurement": "TGA weight loss between 25–125° C.", "setting": "[4]; 6-week samples", "value": "less than 2%"}]}
{"smiles": "Cc1[nH]c(/C=C2\\C(=O)Nc3ccc(F)cc32)c(C)c1C(=O)NC[C@H](O)CN1CCOCC1", "note": "[HCl, form 1, 5-[(Z)-(5-fluoro-2-oxo-1,2-dihydro-3H-indol-3-ylidene)methyl]-N-[(2S)-2-hydroxy-3-morpholin-4-ylpropyl]-2,4-dimethyl-1H-pyrrole-3-carboxamide]", "values": [{"measurement": "Water Uptake at 80% RH (wt. %)", "setting": "[2]; 80% relative humidity", "value": "3–20 wt. %"}, {"measurement": "hysteresis of sorption profile", "setting": "[2]; listed as hydrochloride salt", "value": "significant hysteresis"}]}
{"smiles": "Cc1[nH]c(/C=C2\\C(=O)Nc3ccc(F)cc32)c(C)c1C(=O)NC[C@H](O)CN1CCOCC1", "note": "[Mandalate, 5-[(Z)-(5-fluoro-2-oxo-1,2-dihydro-3H-indol-3-ylidene)methyl]-N-[(2S)-2-hydroxy-3-morpholin-4-ylpropyl]-2,4-dimethyl-1H-pyrrole-3-carboxamide]", "values": [{"measurement": "Water Uptake at 80% RH (wt. %)", "setting": "[2]; 80% relative humidity", "value": "5–6 wt. %"}]}
{"smiles": "Cc1[nH]c(/C=C2\\C(=O)Nc3ccc(F)cc32)c(C)c1C(=O)NC[C@H](O)CN1CCOCC1", "note": "[Form 2, 5-[(Z)-(5-fluoro-2-oxo-1,2-dihydro-3H-indol-3-ylidene)methyl]-N-[(2S)-2-hydroxy-3-morpholin-4-ylpropyl]-2,4-dimethyl-1H-pyrrole-3-carboxamide]", "values": [{"measurement": "Water Uptake at 80% RH (wt. %)", "setting": "[2]; 80% relative humidity, listed as Maleate", "value": 0.8, "unit": "wt. %"}, {"measurement": "crystal form changes in the PXRD pattern", "setting": "[1]; 134 days", "value": "no crystal form changes were observed"}]}
{"smiles": "Cc1[nH]c(/C=C2\\C(=O)Nc3ccc(F)cc32)c(C)c1C(=O)NC[C@H](O)CN1CCOCC1", "note": "[Malonate, 5-[(Z)-(5-fluoro-2-oxo-1,2-dihydro-3H-indol-3-ylidene)methyl]-N-[(2S)-2-hydroxy-3-morpholin-4-ylpropyl]-2,4-dimethyl-1H-pyrrole-3-carboxamide]", "values": [{"measurement": "Water Uptake at 80% RH (wt. %)", "setting": "[2]; 80% relative humidity", "value": 12, "unit": "wt. %"}]}
{"smiles": "Cc1[nH]c(/C=C2\\C(=O)Nc3ccc(F)cc32)c(C)c1C(=O)NC[C@H](O)CN1CCOCC1", "note": "[5-[(Z)-(5-fluoro-2-oxo-1,2-dihydro-3H-indol-3-ylidene)methyl]-N-[(2S)-2-hydroxy-3-morpholin-4-ylpropyl]-2,4-dimethyl-1H-pyrrole-3-carboxamide]", "values": [{"measurement": "metabolism pathway", "setting": "hepatic cytochrome P450", "value": "proceeds primarily through an oxidative pathway mediated by hepatic cytochrome P450"}, {"measurement": "chemical and enantiomeric stability", "setting": "[5]", "value": "chemically and enantiomerically stable"}, {"measurement": "hygroscopicity", "setting": "[5]", "value": "relatively non-hygroscopic"}, {"measurement": "anti-tumor activity", "setting": "[6]", "value": "has anti-tumor activity"}]}
{"smiles": "Cc1[nH]c(/C=C2\\C(=O)Nc3ccc(F)cc32)c(C)c1C(=O)NC[C@H](O)CN1CCOCC1", "note": "[initial maleate salt, 5-[(Z)-(5-fluoro-2-oxo-1,2-dihydro-3H-indol-3-ylidene)methyl]-N-[(2S)-2-hydroxy-3-morpholin-4-ylpropyl]-2,4-dimethyl-1H-pyrrole-3-carboxamide]", "values": [{"measurement": "moisture uptake", "setting": "[2]; 80% relative humidity", "value": "about 9%"}, {"measurement": "hygroscopicity", "setting": "[2]", "value": "hygroscopic"}]}
{"smiles": "Cc1[nH]c(/C=C2\\C(=O)Nc3ccc(F)cc32)c(C)c1C(=O)NC[C@H](O)CN1CCOCC1", "note": "[L-malate, 5-[(Z)-(5-fluoro-2-oxo-1,2-dihydro-3H-indol-3-ylidene)methyl]-N-[(2S)-2-hydroxy-3-morpholin-4-ylpropyl]-2,4-dimethyl-1H-pyrrole-3-carboxamide]", "values": [{"measurement": "Water Uptake at 80% RH (wt. %)", "setting": "[2]; 80% relative humidity", "value": "12–13 wt. %"}]}
